Results: patent US12344595B2, “2-amino-n-phenyl-nicotinamides as NAV1.8 inhibitors” (Merck Sharp & Dohme LLC, priority 2018, dated 2025)

Biological target: human Nav1.8 (Homo sapiens (Human), UniProt Q9Y5Y9)
Experiment: Nav1.8 Qube automated patch-clamp assay
Assay type: cell-based
Settings: Nav1.8 Qube Assay; human Nav1.8 channels stably expressed in HEK 293 cells
Summary of the method: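 Whole-cell automated patch clamp was run at room temperature on HEK293 cells stably expressing the channel. A 1 Hz, 10 s train of 20 ms pulses to 10 mV from −90 mV (repolarizing to −67 mV) was applied. Peak currents at the 1st and 10th pulses gave resting and inactivated-state IC50 values by Hill fit.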

Chain of human Nav1.8 (Q9Y5Y9 whole entry): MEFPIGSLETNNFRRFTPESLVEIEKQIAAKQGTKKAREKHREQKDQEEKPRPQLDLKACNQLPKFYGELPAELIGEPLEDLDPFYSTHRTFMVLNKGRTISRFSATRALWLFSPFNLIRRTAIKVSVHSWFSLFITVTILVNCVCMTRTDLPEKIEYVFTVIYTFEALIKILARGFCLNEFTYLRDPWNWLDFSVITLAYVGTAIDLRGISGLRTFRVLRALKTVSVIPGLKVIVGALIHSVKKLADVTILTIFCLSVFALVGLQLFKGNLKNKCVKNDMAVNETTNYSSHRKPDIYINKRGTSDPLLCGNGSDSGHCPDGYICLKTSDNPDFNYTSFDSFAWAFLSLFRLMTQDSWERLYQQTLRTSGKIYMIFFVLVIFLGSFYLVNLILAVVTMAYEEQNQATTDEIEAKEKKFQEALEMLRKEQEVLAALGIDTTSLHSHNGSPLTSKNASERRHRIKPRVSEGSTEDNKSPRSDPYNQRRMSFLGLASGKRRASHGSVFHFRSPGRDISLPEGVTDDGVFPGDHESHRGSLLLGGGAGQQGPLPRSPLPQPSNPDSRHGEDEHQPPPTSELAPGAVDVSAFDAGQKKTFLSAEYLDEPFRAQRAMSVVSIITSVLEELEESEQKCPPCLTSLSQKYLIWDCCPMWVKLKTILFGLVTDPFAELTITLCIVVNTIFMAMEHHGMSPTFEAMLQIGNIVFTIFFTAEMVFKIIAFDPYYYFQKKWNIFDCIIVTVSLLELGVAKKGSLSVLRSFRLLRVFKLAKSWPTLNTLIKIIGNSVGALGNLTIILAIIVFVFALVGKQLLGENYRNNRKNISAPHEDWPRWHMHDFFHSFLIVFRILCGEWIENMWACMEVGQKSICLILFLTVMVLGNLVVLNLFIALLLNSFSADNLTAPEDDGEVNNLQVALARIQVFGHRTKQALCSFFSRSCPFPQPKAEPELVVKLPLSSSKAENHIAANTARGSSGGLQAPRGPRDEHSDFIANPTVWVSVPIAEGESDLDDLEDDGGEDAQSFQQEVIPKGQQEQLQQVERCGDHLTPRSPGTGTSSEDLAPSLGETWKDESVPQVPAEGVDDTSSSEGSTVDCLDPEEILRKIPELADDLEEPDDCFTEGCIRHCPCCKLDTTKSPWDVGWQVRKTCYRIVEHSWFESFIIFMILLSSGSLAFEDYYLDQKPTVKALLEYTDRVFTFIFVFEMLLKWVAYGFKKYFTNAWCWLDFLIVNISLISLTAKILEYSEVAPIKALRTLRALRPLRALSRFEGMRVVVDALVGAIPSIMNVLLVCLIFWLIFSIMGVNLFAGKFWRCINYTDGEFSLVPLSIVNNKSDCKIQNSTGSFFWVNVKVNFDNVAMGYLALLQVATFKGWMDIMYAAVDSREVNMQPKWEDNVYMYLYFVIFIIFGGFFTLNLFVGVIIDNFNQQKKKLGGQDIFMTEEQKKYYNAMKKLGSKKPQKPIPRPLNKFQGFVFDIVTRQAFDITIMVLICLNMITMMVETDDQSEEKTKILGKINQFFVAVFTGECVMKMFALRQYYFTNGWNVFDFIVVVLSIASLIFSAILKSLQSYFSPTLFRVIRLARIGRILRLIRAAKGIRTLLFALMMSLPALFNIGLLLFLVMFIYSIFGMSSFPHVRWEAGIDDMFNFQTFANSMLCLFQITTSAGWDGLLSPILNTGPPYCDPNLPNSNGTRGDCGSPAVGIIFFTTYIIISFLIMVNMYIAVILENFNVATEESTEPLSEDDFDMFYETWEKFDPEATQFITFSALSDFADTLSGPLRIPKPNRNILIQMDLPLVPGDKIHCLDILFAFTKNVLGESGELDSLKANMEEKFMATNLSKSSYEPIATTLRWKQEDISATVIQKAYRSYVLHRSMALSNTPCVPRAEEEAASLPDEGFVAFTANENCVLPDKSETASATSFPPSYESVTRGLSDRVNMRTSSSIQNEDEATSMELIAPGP

SMILES | IC50 [nM]
Cc1nc(N2CCC3(CC2)CC3)c(C(=O)Nc2cccc(S(N)(=O)=O)c2)c(C)c1Cl [Example 76, 2-(6-azaspiro[2.5]-octan-6-yl)-5-chloro-4,6-dimethyl-N-(3-sulfamoylphenyl) pyridine-3-carboxamide] | 2.2
CS(=O)(=O)c1cccc(NC(=O)c2ccc(C(F)(F)F)nc2N2CCCCCC2)c1 [Example 82, 2-(azepan-1-yl)-N-(3-(methylsulfonyl)phenyl)-6-(trifluoro-methyl)nicotinamide] | 60
C[Si](C)(C)c1cc(C(=O)Nc2cccc(S(N)(=O)=O)c2)c(N2CCCCCC2)nc1OC(F)(F)F [Example 85, 2-(azepan-1-yl)-N-(3-sulfamoylphenyl)-6-(trifluoromethoxy)-5-(trimethylsilyl)nicotinamide] | 1220
C[Si](C)(C)c1cnc(N2CCCCCC2)c(C(=O)Nc2cccc(S(N)(=O)=O)c2)c1 [Example 86, 2-(azepan-1-yl)-N-(3-sulfamoylphenyl)-5-(trimethylsilyl)nicotinamide] | 77
C[Si](C)(C)c1cnc(N2CCC3(CC2)COC3)c(C(=O)Nc2cccc(S(N)(=O)=O)c2)c1 [Example 87, 2-(2-oxa-7-azaspiro-[3.5]nonan-7-yl)-N-(3-sulfamoylphenyl)-5-(trimethylsilyl)-nicotinamide] | 7880
NS(=O)(=O)c1cccc(NC(=O)c2ccc(Cl)nc2N2CCCCCC2)c1 [Example 89, 2-(azepan-1-yl)-6-chloro-N-(3-sulfamoyl-phenyl)pyridine-3-carboxamide] | 16
Cc1ccc(C(=O)Nc2cccc(S(N)(=O)=O)c2)c(N2CCCCCC2)n1 [Example 90, 2-(azepan-1-yl)-6-methyl-N-(3-sulfamoyl-phenyl)pyridine-3-carboxamide] | 17
COc1ccc(C(=O)Nc2cccc(S(N)(=O)=O)c2)c(N2CCCCCC2)n1 [Example 91, 2-(azepan-1-yl)-6-methoxy-N-(3-sulfamoyl-phenyl)pyridine-3-carboxamide] | 29
NS(=O)(=O)c1cccc(NC(=O)c2cc(F)c(Cl)nc2N2CCCCCC2)c1 [Example 92, 2-(azepan-1-yl)-6-chloro-5-fluoro-N-(3-sulfamoylphenyl)-pyridine-3-carboxamide] | 31

Second part, the compound after the results:

IC50 [nM] | SMILES
286 | NS(=O)(=O)c1cccc(NC(=O)c2ccc(C(F)(F)F)nc2N2CCCCC2)c1 [Example 77, 2-(1-piperidyl)-N-(3-sulfamoylphenyl)-6-(trifluoromethyl) pyridine-3-carboxamide]
10 | NS(=O)(=O)c1cccc(NC(=O)c2cc(C(F)(F)F)cnc2N2CCCC3(CC2)CC3)c1 [Example 79, 2-(6-azaspiro[2.6]nonan-6-yl)-N-(3-sulfamoyl-phenyl)-5-(trifluoro-methyl)nicotinamide]
11 | CC1(C)CCCN(c2ncc(C(F)(F)F)cc2C(=O)Nc2cccc(S(N)(=O)=O)c2)CC1 [Example 80, 2-(4,4-dimethylazepan-1-yl)-N-(3-sulfamoyl-phenyl)-5-(trifluoro-methyl)nicotinamide]
4240 | NS(=O)(=O)c1cccc(NC(=O)c2cc(C(F)(F)F)cnc2N2CC3(CCOCC3)C2)c1 [Example 81, 2-(7-oxa-2-azaspiro[3.5]nonan-2-yl)-N-(3-sulfamoyl-phenyl)-5-(trifluoro-methyl)nicotinamide]
180 | NC(=O)c1cccc(NC(=O)c2ccc(C(F)(F)F)nc2N2CCC3(CC2)CC3)c1 [Example 83, N-(3-carbamoyl-phenyl)-2-(6-azaspiro[2.5]octan-6-yl)-6-(trifluoro-methyl)-nicotinamide]
248 | NS(=O)(=O)c1cccc(NC(=O)c2ccc(OC(F)(F)F)nc2N2CCCCC2)c1 [Example 84, 2-(piperidin-1-yl)-N-(3-sulfamoylphenyl)-6-(trifluoromethoxy)nicotinamide]
6 | NS(=O)(=O)c1cccc(NC(=O)c2cc(C(F)(F)F)cnc2N2CCCCCCC2)c1 [Example 88, 2-(azocan-1-yl)-N-(3-sulfamoylphenyl)-5-(trifluoromethyl)-pyridine-3-carboxamide]
